Laboratory results from patent US20250025443A1, “COMPOUNDS AND METHODS FOR TREATING CORONA VIRUSES” (CLEAR CREEK BIO, INC., priority 2021, published 2025).
pIC50: −log10 of the molar value.

Each molecule was assayed against SARS-CoV-2 Papain-Like Protease (PLpro) (Severe acute respiratory syndrome coronavirus 2 (2019-nCoV) (SARS-CoV-2), UniProt P0DTD1) (assay: biochemical). Conditions: PLpro enzymatic fluorescence assay; class symbols; read-out: PLpro IC50.
With `Cc1ccc(OC[C@@H]2CCN2C)cc1C(=O)NC1(c2cc(-c3ccc(CN(C)C)s3)cc3ncccc23)CC1` [Compound 756, (S)—N-(1-(7-(5-((Dimethylamino)methyl)thiophen-2-yl)quinolin-5-yl)cyclopropyl)-2-methyl-5-((1-methylazetidin-2-yl)methoxy)benzamide] the pIC50 was > 7.00.
In the case of `C=Cc1cc(C2(NC(=O)c3cc(O[C@H](C)[C@@H]4CCN4C)ccc3C)CC2)c2cccnc2c1` [Compound 758, 2-Methyl-5-((R)-1-((S)-1-methylazetidin-2-yl)ethoxy)-N-(1-(7-vinylquinolin-5-yl)cyclopropyl)benzamide], the pIC50 was > 7.00.
`Cc1ccc(OC[C@@H]2CCN2C)cc1C(=O)NC1(c2cc(NCC(F)(F)F)cc3ncccc23)CC1` [Compound 759, (S)-2-Methyl-5-((1-methylazetidin-2-yl)methoxy)-N-(1-(7-((2,2,2-trifluoroethyl)amino)quinolin-5-yl)cyclopropyl)benzamide] was tested, and the pIC50 was > 7.00.
`C=Cc1cc(C2(NC(=O)c3cc(OC[C@@H]4CCN4C)c(NS(C)(=O)=O)cc3C)CC2)c2cccnc2c1` [Compound 760, (S)-2-Methyl-5-((1-methylazetidin-2-yl)methoxy)-4-(methylsulfonamido)-N-(1-(7-vinylquinolin-5-yl)cyclopropyl)benzamide] was tested, and the pIC50 was > 7.00.
In the case of `COc1cc(C2(NC(=O)c3cc(OC[C@@H]4CCN4C)ccc3C)CC2)c2ncccc2c1` [Compound 761, (S)-N-(1-(6-Methoxyquinolin-8-yl)cyclopropyl)-2-methyl-5-((1-methylazetidin-2-yl)methoxy)benzamide], the pIC50 was 6.00 to 7.00.
For `Cc1ccc(OC[C@@H]2CCN2C)cc1C(=O)NC1(c2cc(-c3ccc(C(C)O)s3)cc3ncccc23)CC1` (stereo partly drawn) [Compound 762, N-(1-(7-(5-(1-Hydroxyethyl)thiophen-2-yl)quinolin-5-yl)cyclopropyl)-2-methyl-5-(((S)-1-methylazetidin-2-yl)methoxy)benzamide], the pIC50 was > 7.00.
`CNc1cc(C2(NC(=O)c3cc(OC[C@@H]4CCN4C)ccc3C)CC2)c2cccnc2c1` [Compound 763, (S)-2-Methyl-N-(1-(7-(methylamino)quinolin-5-yl)cyclopropyl)-5-((1-methylazetidin-2-yl)methoxy)benzamide] was tested, and the pIC50 was > 7.00.
`Cc1ncc(-c2cc(C3(NC(=O)c4cc(OC[C@@H]5CCN5C)ccc4C)CC3)c3cccnc3c2)s1` [Compound 764, (S)-2-Methyl-5-((1-methylazetidin-2-yl)methoxy)-N-(1-(7-(2-methylthiazol-5-yl)quinolin-5-yl)cyclopropyl)benzamide] was tested, and the pIC50 was > 7.00.
For `Cc1ccc(OC[C@@H]2CCN2C)cc1C(=O)NC1(c2cc(-c3ccc(C(=O)N4CCCC4)s3)cc3ncccc23)CC1` [Compound 767, (S)-2-Methyl-5-((1-methylazetidin-2-yl)methoxy)-N-(1-(7-(5-(pyrrolidine-1-carbonyl)thiophen-2-yl)quinolin-5-yl)cyclopropyl)benzamide], the pIC50 was < 5.30.
For `CCCN(CCC)c1cc(C2(NC(=O)c3cc(OC[C@@H]4CCN4C)ccc3C)CC2)c2cccnc2c1` [Compound 771, (S)—N-(1-(7-(Dipropylamino)quinolin-5-yl)cyclopropyl)-2-methyl-5-((1-methylazetidin-2-yl)methoxy)benzamide], the pIC50 was > 7.00.
In the case of `COc1cc(C2(NC(=O)c3cc(OC[C@H]4CC5(CC5)CN4C)ccc3C)CC2)c2cccnc2c1` [Compound 774, (R)—N-(1-(7-Methoxyquinolin-5-yl)cyclopropyl)-2-methyl-5-((5-methyl-5-azaspiro[2.4]heptan-6-yl)methoxy)benzamide], the pIC50 was > 7.00.
In the case of `COc1cc(C2(NC(=O)c3cc(OC[C@@H]4CC[C@@H]5CN(C(=O)OC(C)(C)C)CCN54)ccc3C)CC2)c2cccnc2c1` [Compound 775], the pIC50 was > 7.00.
In the case of `COc1cc(C2(NC(=O)c3cc(O[C@H]4CC[C@@H]5CN(C(=O)OC(C)(C)C)CCN5C4)ccc3C)CC2)c2cccnc2c1` [Compound 776], the pIC50 was > 7.00.
For `Cc1ccc(OC[C@@H]2CCN2C)cc1C(=O)NC1(c2cc(-c3ccc(C(C)N4CCCC4)s3)cc3ncccc23)CC1` (stereo partly drawn) [Compound 780, 2-Methyl-5-(((S)-1-methylazetidin-2-yl)methoxy)-N-(1-(7-(5-(1-(pyrrolidin-1-yl)ethyl)thiophen-2-yl)quinolin-5-yl)cyclopropyl)benzamide], the pIC50 was > 7.00.
In the case of `Cc1ccc(OC[C@@H]2CCN2C)cc1C(=O)NC1(c2cc(N(C)CC(F)(F)F)cc3ncccc23)CC1` [Compound 781, (S)-2-Methyl-N-(1-(7-(methyl(2,2,2-trifluoroethyl)amino)quinolin-5-yl)cyclopropyl)-5-((1-methylazetidin-2-yl)methoxy)benzamide], the pIC50 was > 7.00.
For `[2H]C([2H])([2H])N1CC[C@H]1COc1ccc(C)c(C(=O)NC2(c3cc(-c4cnc(C)o4)cc4ncccc34)CC2)c1` [Compound 782, (S)-2-Methyl-5-((1-(methyl-d3)azetidin-2-yl)methoxy)-N-(1-(7-(2-methyloxazol-5-yl)quinolin-5-yl)cyclopropyl)benzamide], the pIC50 was > 7.00.
For `COc1cc(C2(NC(=O)c3cc(O[C@H]4CC[C@@H]5CN(C)CCN5C4)ccc3C)CC2)c2cccnc2c1` [Compound 783], the pIC50 was > 7.00.
`COc1cc(C2(NC(=O)c3cc(OC[C@@H]4CC[C@@H]5CN(C)CCN54)ccc3C)CC2)c2cccnc2c1` [Compound 784] was tested, and the pIC50 was > 7.00.
With `C=Cc1cc2c(c(C3(NC(=O)c4cc(OC[C@@H]5CCN5C)ccc4C)CC3)c1)CCCN2` [Compound 785, (S)-2-Methyl-5-((1-methylazetidin-2-yl)methoxy)-N-(1-(7-vinyl-1,2,3,4-tetrahydroquinolin-5-yl)cyclopropyl)benzamide] the pIC50 was > 7.00.
In the case of `Cc1ccc(OC[C@@H]2CCN2C)cc1C(=O)NC1(c2cc(OCC(C)(C)C)cc3ncccc23)CC1` [Compound 787, (S)-2-Methyl-5-((1-methylazetidin-2-yl)methoxy)-N-(1-(7-(neopentyloxy)quinolin-5-yl)cyclopropyl)benzamide], the pIC50 was > 7.00.
With `[2H]C([2H])([2H])N1CC[C@H]1COc1ccc(C)c(C(=O)NC2(c3cc(C=C)cc4ncccc34)CC2)c1` [Compound 788, (S)-2-Methyl-5-((1-(methyl-d3)azetidin-2-yl)methoxy)-N-(1-(7-vinylquinolin-5-yl)cyclopropyl)benzamide] the pIC50 was > 7.00.
In the case of `COc1cc(C2(NC(=O)c3cc(OC[C@@H]4CC[C@@H]5CNCCN54)ccc3C)CC2)c2cccnc2c1` [Compound 789], the pIC50 was > 7.00.
`COc1cc(C2(NC(=O)c3cc(O[C@H]4CC[C@@H]5CNCCN5C4)ccc3C)CC2)c2cccnc2c1` [Compound 790] was tested, and the pIC50 was > 7.00.
In the case of `COc1cc(C2(NC(=O)c3cc(OC[C@@H]4CCN4C)ccc3F)CC2)c2ccc(C)nc2c1` [Compound 791, (S)-2-Fluoro-N-(1-(7-methoxy-2-methylquinolin-5-yl)cyclopropyl)-5-((1-methylazetidin-2-yl)methoxy)benzamide], the pIC50 was 6.00 to 7.00.
In the case of `Cc1ccc(OC[C@@H]2CCN2C)cc1C(=O)NC1(c2cc(-c3ccc(CN4CCOCC4)s3)cc3ncccc23)CC1` [Compound 793, (S)-2-Methyl-5-((1-methylazetidin-2-yl)methoxy)-N-(1-(7-(5-(morpholinomethyl)thiophen-2-yl)quinolin-5-yl)cyclopropyl)benzamide], the pIC50 was > 7.00.
For `[2H]C1([2H])C([2H])([2H])C1(NC(=O)c1cc(OC[C@@H]2CCN2C)ccc1C)c1cc(OC)cc2ncccc12` [Compound 794, (S)-N-(1-(7-Methoxyquinolin-5-yl)cyclopropyl-2,2,3,3-d4)-2-methyl-5-((1-methylazetidin-2-yl)methoxy)benzamide], the pIC50 was > 7.00.
For `Cc1ccc(OC[C@@H]2CCN2C)cc1C(=O)NC1(c2cc(OCC(F)(F)F)cc3ncccc23)CC1` [Compound 795, (S)-2-Methyl-5-((1-methylazetidin-2-yl)methoxy)-N-(1-(7-(2,2,2-trifluoroethoxy)quinolin-5-yl)cyclopropyl)benzamide], the pIC50 was > 7.00.
For `C=Cc1cc2c(c(C3(NC(=O)c4cc(OC[C@@H]5CCN5C)ccc4C)CC3)c1)CCCN2C` [Compound 796, (S)-2-Methyl-N-(1-(1-methyl-7-vinyl-1,2,3,4-tetrahydroquinolin-5-yl)cyclopropyl)-5-((1-methylazetidin-2-yl)methoxy)benzamide], the pIC50 was > 7.00.
In the case of `[2H]C([2H])(Oc1ccc(C)c(C(=O)NC2(c3cc(OC)cc4ncccc34)CC2)c1)[C@@H]1CCN1C` [Compound 797, (S)-N-(1-(7-Methoxyquinolin-5-yl)cyclopropyl)-2-methyl-5-((1-methylazetidin-2-yl)methoxy-d2)benzamide], the pIC50 was > 7.00.
In the case of `COc1cc(C2(NC(=O)c3cc(OCC4Cc5ccccc5CN4C)ccc3C)CC2)c2cccnc2c1` (stereo not shown) [Compound 799, N-(1-(7-Methoxyquinolin-5-yl)cyclopropyl)-2-methyl-5-((2-methyl-1,2,3,4-tetrahydroisoquinolin-3-yl)methoxy)benzamide], the pIC50 was > 7.00.
`COc1cc(C2(NC(=O)c3cc(OCC4c5ccccc5CCN4C)ccc3C)CC2)c2cccnc2c1` (stereo not shown) [Compound 801, N-(1-(7-Methoxyquinolin-5-yl)cyclopropyl)-2-methyl-5-((2-methyl-1,2,3,4-tetrahydroisoquinolin-1-yl)methoxy)benzamide] was tested, and the pIC50 was > 7.00.
`Cc1cc(C2(NC(=O)c3cc(OC[C@@H]4CCN4C)ccc3C)CC2)c2ccc(C)nc2c1` [Compound 802, (S)-N-(1-(2,7-Dimethylquinolin-5-yl)cyclopropyl)-2-methyl-5-((1-methylazetidin-2-yl)methoxy)benzamide] was tested, and the pIC50 was > 7.00.

Same assay, conditions: SARS-CoV-2 PLpro enzymatic fluorescence assay; read-out: PLpro IC50
In the case of `Cc1ccc(OC[C@@H]2CCN2C)cc1C(=O)NC1(c2cc(NS(C)(=O)=O)cc3ncccc23)CC1` [Compound 786, (S)-2-Methyl-5-((1-methylazetidin-2-yl)methoxy)-N-(1-(7-(methylsulfonamido)quinolin-5-yl)cyclopropyl)benzamide], the pIC50 was > 7.00.
`C=Cc1cc(C2(NC(=O)c3cc(OC[C@@H]4CCN4C)c(F)cc3C)CC2)c2cccnc2c1` [Compound 800, (S)-4-Fluoro-2-methyl-5-((1-methylazetidin-2-yl)methoxy)-N-(1-(7-vinylquinolin-5-yl)cyclopropyl)benzamide] was tested, and the pIC50 was > 7.00.
